Data reported in US20100331203A1, “AROMATASE EXPRESSION PREDICTS SURVIVAL IN WOMEN WITH NON-SMALL CELL LUNG CANCER” (THE REGENTS OF THE UNIVERSITY OF CALIFORNIA, priority 2007, published 2010).
“Also recorded” adds a separate entry of the source.

How the values were obtained:
[1] = exemestane cohort compared to women maintained on tamoxifen; cited from earlier work
A549 lung tumor cells = assay: A549 non-small cell lung tumor xenografts in ovariectomized female athymic mice; format: in vivo; conditions: daily subcutaneous treatment, 5 animals per group, P<0.001
Excerpt: FIG. 1. Growth-promoting effects of estrogen and aromatase substrate on non-small cell lung tumor xenografts in vivo. A549 lung tumor cells which express endogenous aromatase were implanted as subcutaneous xenografts in ovariectomized female athymic mice. Mice were then divided into 3 groups (5 animals per group). ▪ Animals were given daily subcutaneous treatments of the aromatase substrate androstenedione as before (see, e.g. Weinberg et al., Cancer Res 2005; 65:11287-91). […] Animals were given daily subcutaneous treatments of estradiol in a biodegradable binder as described (see, e.g. Pietras et al., Oncogene 1995; 10:2435-46). ▴ Control animals were supplemented with subcutaneous injection of vehicle alone.
In this study we examined aromatase, a key enzyme in the estrogen synthesis pathway. We hypothesized that expression of aromatase in lung cancer cells could result in a focal increase in estrogen levels and serve to promote tumor development and/or progression. […] To further assess estrogen signaling in NSCLC in vivo, we implanted A549 lung tumor cells which express endogenous aromatase in ovariectomized female athymic mice.
The protocol used for implantation of human lung tumor xenografts in nude mice was described previously (see, e.g. Weinberg et al., Cancer Res 2005; 65:11287-91; Pietras et al., Oncogene 1995; 10:2435-46). […]

human NSCLC xenograph = conditions: in vivo; cited from earlier work
NSCLC cells = conditions: cited from earlier work

C=C1C[C@@H]2[C@H](CC[C@]3(C)C(=O)CC[C@@H]23)[C@@]2(C)C=CC(=O)C=C12 [exemestane]
Subsequent development of primary lung cancer [1]: reduction

C[C@]12CCC(=O)C=C1CC[C@@H]1[C@@H]2CC[C@]2(C)C(=O)CC[C@@H]12 [androstenedione]
Growth of A549 tumors compared to control animals (A549 lung tumor cells): significantly increased; also recorded: significantly enhanced tumor growth

C[C@]12CC[C@@H]3c4ccc(O)cc4C[C@@H](CCCCCCCCC[S+]([O-])CCCC(F)(F)C(F)(F)F)[C@H]3[C@@H]1CC[C@@H]2O (stereo partly shown) [Faslodex, fulvestrant]
Tumor formation in human NSCLC xenograph model (human NSCLC xenograph): inhibited
Effect on 17β-estradiol-induced mitogenesis and gene transcription in NSCLC cells (NSCLC cells; ER antagonist): inhibited

C[C@]12CC[C@@H]3c4ccc(O)cc4CC[C@H]3[C@@H]1CC[C@@H]2O [estradiol, 17β-estradiol]
Growth of A549 tumors compared to control animals (A549 lung tumor cells): significantly increased
Gene transcription in NSCLC cells (NSCLC cells; in vitro and in vivo models): stimulates
Mitogenic effect on NSCLC cells (NSCLC cells; in vitro and in vivo models): mitogenic
